The target of one experiment is T1, MAT2A homodimer (Homo sapiens, UniProt P31153).
T1 construct: inferred from Ni sepharose purification and imidazole elution; made in house; host or cells: Sf9 insect cells, recombinant baculovirus (Bac to Bac, pFASTBAC1)
Put plainly: Biochemical assay: inhibition of MAT2A (phosphate release, PiColorLock Gold). The note with it: MAT2A IC50 score; read-out: Enzyme Inhibition (Example 275). An outline of the steps: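 Phosphate formed alongside SAM was read with PiColorLock Gold and quantified against a potassium phosphate standard curve. Reactions ran 60 min at 25 °C after adding a substrate mix of 500 μM ATP and 400 μM L-methionine (mix concentrations). Compound had first been preincubated 60 min with recombinant Sf9-derived MAT2A homodimer ([…]) in pH 8.0 Tris buffer containing MgCl2, KCl, EDTA and BSA.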

Experiment [1] has as its system SAM in HCT116 human colon carcinoma cell line engineered to delete the MTAP gene (MTAP −/−). Nature of the experiment: Cellular assay of target engagement (SAM) by LC-MS/MS. The format is cell-based. To be noted: Homo sapiens, HCT-116, 72 h, IC50 score, read-out: Cell 72 h SAM Inhibition (MTAP −/−; Example 276). An outline of the steps:
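Intracellular SAM, the MAT2A product, was measured by quantitative LC-MS/MS against a d3-SAM standard in methanol/acetic acid extracts. Extracts came from HCT116 MTAP −/− cells exposed for 72 h at 37 °C to a ten-point, threefold dilution series of compound, added one day after seeding.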

A further experiment has as its system HCT116 MTAP−/−. Nature of the experiment: Inhibition of cellular proliferation (Cell Titer Glo), HCT116 MTAP−/−. To be noted: Homo sapiens, HCT-116, 96 h, 4 days, IC50 score, read-out: 4 Day Relative Growth Inhibition (MTAP −/−; Example 277). Format: cell-based, human. The essentials:
(§1)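 Proliferation was read as ATP luminescence (Cell Titer Glo) after a 4-day, 37 °C exposure of HCT116 cells differing only in MTAP deletion status. Dosing was 10 points, 3-fold steps, added 24 h post-plating; signal minus blank, relative to 0.2% DMSO control wells, was plotted against log molar concentration.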
(In general: ATP-based viability assays read luminescence as a measure of living cells.)

The subject of another experiment is HCT116 MTAP+/+. Put plainly: Inhibition of cellular proliferation (Cell Titer Glo), HCT116 MTAP+/+. To be noted: Homo sapiens, HCT-116, 96 h, 4 days, IC50 score, read-out: 4 Day Relative Growth Inhibition (MTAP +/+; Example 277). The format is cell-based, human. The essentials:
as §1

A value given as a limit tells only on which side of the number the result lay.

T1 sequence (P31153 whole entry): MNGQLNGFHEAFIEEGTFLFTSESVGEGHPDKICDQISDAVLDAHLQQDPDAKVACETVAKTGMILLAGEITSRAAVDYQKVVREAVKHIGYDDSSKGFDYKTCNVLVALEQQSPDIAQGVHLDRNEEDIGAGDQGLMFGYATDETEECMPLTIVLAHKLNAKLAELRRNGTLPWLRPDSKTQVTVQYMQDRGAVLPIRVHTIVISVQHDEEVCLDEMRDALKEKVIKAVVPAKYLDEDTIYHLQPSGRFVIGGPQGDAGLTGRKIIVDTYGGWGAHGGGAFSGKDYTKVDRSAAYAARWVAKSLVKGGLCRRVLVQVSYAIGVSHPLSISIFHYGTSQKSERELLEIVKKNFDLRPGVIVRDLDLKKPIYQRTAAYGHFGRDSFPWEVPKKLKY

With `CCOc1ccc2cn(-c3ccc4ncccc4c3)c(=O)c(-c3ccc(C4CC4)nc3)c2n1` [Example 231, 8-(6-cyclopropylpyridin-3-yl)-2-ethoxy-6-(quinolin-6-yl)-1,6-naphthyridin-7(6H)-one], the IC50 is < 100 nM on MAT2A homodimer, < 100 nM in experiment [1], 100 to 10000 nM in the experiment on HCT116 MTAP−/− and > 10000 nM in the experiment on HCT116 MTAP+/+.

For `Cn1cc2cc(-n3cc4ccc(OCC(F)(F)F)nc4c(-c4ccc(C(F)(F)F)nc4)c3=O)ccc2n1` [Example 124-A], the IC50 on MAT2A homodimer was < 100 nM; in experiment [1], < 100 nM; with HCT116 MTAP−/−, 100 to 10000 nM; in the experiment on HCT116 MTAP+/+, 100 to 10000 nM.

As to `[2H]C([2H])([2H])Oc1ccc(-c2c(=O)n(-c3ccc4nn(C)cc4c3)cc3ccc(OCC(F)F)nc23)cc1` [Example 115-A], the IC50 on MAT2A homodimer is < 100 nM; in experiment [1] it was < 100 nM; with HCT116 MTAP−/− it was < 100 nM; with HCT116 MTAP+/+, 100 to 10000 nM.

As for `CCOc1ccc2cn(-c3ccc4nn(C)cc4c3)c(=O)c(-c3ccc(OC(F)F)cc3)c2n1` [Example 251, 8-(4-(difluoromethoxy)phenyl)-2-ethoxy-6-(2-methyl-2H-indazol-5-yl)-1,6-naphthyridin-7(6H)-one], the IC50 on MAT2A homodimer was < 100 nM; in experiment [1], < 100 nM; with HCT116 MTAP−/−, < 100 nM; in the experiment with HCT116 MTAP+/+, 100 to 10000 nM.

Turning to `Cn1cc2cc(-n3cc4cnc(OCC(F)(F)F)nc4c(-c4ccc(Cl)cc4)c3=O)ccc2n1` [Example 262, 8-(4-chlorophenyl)-6-(2-methyl-2H-indazol-5-yl)-2-(2,2,2-trifluoroethoxy)pyrido[4,3-d]pyrimidin-7(6H)-one], the IC50 at MAT2A homodimer is < 100 nM; in experiment [1] it was < 100 nM; in the experiment on HCT116 MTAP−/−, 100 to 10000 nM; in the experiment on HCT116 MTAP+/+, > 10000 nM.

With `Cn1cc2cc(-n3cc4ccc(OCC5CC5)nc4c(-c4ccc(Cl)cc4)c3=O)ccc2n1` [Example 233, 8-(4-chlorophenyl)-2-(cyclopropylmethoxy)-6-(2-methyl-2H-indazol-5-yl)-1,6-naphthyridin-7(6H)-one], the IC50 on MAT2A homodimer is < 100 nM; in experiment [1], < 100 nM; in the experiment with HCT116 MTAP−/−, < 100 nM; in the experiment with HCT116 MTAP+/+ it was > 10000 nM.

Turning to `CCOc1cnc2cn(-c3ccc4nn(C)cc4c3)c(=O)c(-c3ccc(OC)cc3)c2n1` [Example 140-A], the IC50 at MAT2A homodimer is < 100 nM; in experiment [1] it was < 100 nM; in the experiment with HCT116 MTAP−/−, < 100 nM; in the experiment with HCT116 MTAP+/+, > 10000 nM.

For the compound `COc1ccc(-c2c(=O)n(-c3ccc4ncccc4c3)cc3cnc(NCC(F)(F)F)nc23)cc1` [Example 181, 8-(4-methoxyphenyl)-6-(quinolin-6-yl)-2-((2,2,2-trifluoroethyl)amino)pyrido[4,3-d]pyrimidin-7(6H)-one], the IC50 at MAT2A homodimer is < 100 nM; in experiment [1], < 100 nM; in the experiment with HCT116 MTAP−/− it was 100 to 10000 nM; in the experiment on HCT116 MTAP+/+, > 10000 nM.

Consider `COc1ccc(-n2cc3ccc(NCC(F)(F)F)nc3c(-c3ccc(OC(F)F)cc3)c2=O)cc1` [Example 241, 8-(4-(difluoromethoxy)phenyl)-6-(4-methoxyphenyl)-2-(2,2,2-trifluoroethylamino)-1,6-naphthyridin-7(6H)-one], for which the IC50 at MAT2A homodimer is < 100 nM; in experiment [1], < 100 nM; in the experiment with HCT116 MTAP−/−, < 100 nM; in the experiment on HCT116 MTAP+/+ it was 100 to 10000 nM.

Turning to `Cn1cnc2ccc(-n3cc4ccc(NCC(F)(F)F)nc4c(-c4ccc(OC(F)F)cc4)c3=O)cc21` [Example 240, 8-(4-(difluoromethoxy)phenyl)-6-(1-methyl-1H-benzo[d]imidazol-6-yl)-2-(2,2,2-trifluoroethylamino)-1,6-naphthyridin-7(6H)-one], the IC50 on MAT2A homodimer is < 100 nM; in experiment [1], < 100 nM; in the experiment on HCT116 MTAP−/− it was < 100 nM; in the experiment on HCT116 MTAP+/+, > 10000 nM.

As for `CN(C)CCn1cc2cc(-n3cc4cnc(NCC(F)(F)F)nc4c(-c4ccc(Cl)cc4)c3=O)ccc2n1` [Example 137, 8-(4-chlorophenyl)-6-(2-(2-(dimethylamino)ethyl)-2H-indazol-5-yl)-2-((2,2,2-trifluoroethyl)amino)pyrido[4,3-d]pyrimidin-7(6H)-one], the IC50 was < 100 nM on MAT2A homodimer, 100 to 1000 nM in experiment [1], 100 to 10000 nM in the experiment with HCT116 MTAP−/− and > 10000 nM with HCT116 MTAP+/+.

For the compound `CCOc1ccc2cn(-c3ccc(=O)n(CCS(C)(=O)=O)c3)c(=O)c(-c3ccc(OC(F)F)cc3)c2n1` [Example 249, 8-(4-(difluoromethoxy)phenyl)-2-ethoxy-6-(1-(2-(methylsulfonyl)ethyl)-6-oxo-1,6-dihydropyridin-3-yl)-1,6-naphthyridin-7(6H)-one], the IC50 was < 100 nM on MAT2A homodimer, < 100 nM in experiment [1], 100 to 10000 nM in the experiment with HCT116 MTAP−/− and 100 to 10000 nM with HCT116 MTAP+/+.

For the compound `Cn1cc2cc(-n3cc4ccc(OCC(F)F)nc4c(-c4ccc(OC(F)F)cc4)c3=O)ccc2n1` [Example 126-A], the IC50 on MAT2A homodimer was < 100 nM; in experiment [1], < 100 nM; with HCT116 MTAP−/− it was < 100 nM; with HCT116 MTAP+/+ it was 100 to 10000 nM.

For `Cn1cc2cc(-n3cc4cnc(OCC(F)(F)F)nc4c(-c4ccc(OC(F)F)cc4)c3=O)ccc2n1` [Example 265, 8-(4-(difluoromethoxy)phenyl)-6-(2-methyl-2H-indazol-5-yl)-2-(2,2,2-trifluoroethoxy)pyrido[4,3-d]pyrimidin-7(6H)-one], the IC50 is < 100 nM on MAT2A homodimer, < 100 nM in experiment [1], < 100 nM with HCT116 MTAP−/− and > 10000 nM in the experiment on HCT116 MTAP+/+.

Take `COc1ccc(-n2cc3cnc(NCC(F)(F)F)nc3c(-c3ccc(OC(F)F)cc3)c2=O)cc1` [Example 195, 8-(4-(difluoromethoxy)phenyl)-6-(4-methoxyphenyl)-2-((2,2,2-trifluoroethyl)amino)pyrido[4,3-d]pyrimidin-7(6H)-one]: the IC50 is < 100 nM on MAT2A homodimer, < 100 nM in experiment [1], < 100 nM in the experiment on HCT116 MTAP−/− and > 10000 nM in the experiment with HCT116 MTAP+/+.

For the compound `CCOc1cnc2cn(-c3ccc4nn(C)cc4c3)c(=O)c(-c3ccc(OC(F)F)nc3)c2n1` [Example 149-A], the IC50 on MAT2A homodimer was < 100 nM; in experiment [1] it was < 100 nM; in the experiment with HCT116 MTAP−/−, 100 to 10000 nM; in the experiment on HCT116 MTAP+/+, 100 to 10000 nM.

In the case of `COc1ccc(-n2cc3cnc(NCC(F)(F)F)nc3c(-c3ccc(Cl)cc3)c2=O)cc1` [Example 193, 8-(4-chlorophenyl)-6-(4-methoxyphenyl)-2-((2,2,2-trifluoroethyl)amino)pyrido[4,3-d]pyrimidin-7(6H)-one], the IC50 on MAT2A homodimer was < 100 nM; in experiment [1] it was 100 to 1000 nM; in the experiment on HCT116 MTAP−/− it was 100 to 10000 nM; in the experiment on HCT116 MTAP+/+, > 10000 nM.

In the case of `Cc1c2cc(-n3cc4cnc(NCC(F)(F)F)nc4c(-c4ccc(Cl)cc4)c3=O)ccc2nn1C` [Example 132, 8-(4-chlorophenyl)-6-(2,3-dimethyl-2H-indazol-5-yl)-2-(2,2,2-trifluoroethylamino)pyrido[4,3-d]pyrimidin-7(6)-one], the IC50 was < 100 nM at MAT2A homodimer, < 100 nM in experiment [1], < 100 nM in the experiment with HCT116 MTAP−/− and > 10000 nM in the experiment on HCT116 MTAP+/+.

With `O=c1c(-c2ccc(C3CC3)cc2)c2nc(NCC(F)(F)F)ncc2cn1-c1ccc2ncsc2c1` [Example 166, 6-(benzo[d]thiazol-6-yl)-8-(4-cyclopropylphenyl)-2-((2,2,2-trifluoroethyl)amino)pyrido[4,3-d]pyrimidin-7(6)-one], the IC50 at MAT2A homodimer is < 100 nM; in experiment [1], < 100 nM; with HCT116 MTAP−/− it was < 100 nM; with HCT116 MTAP+/+, > 10000 nM.

Turning to `CCOc1cnc2cn(-c3ccc4nn(C)cc4c3)c(=O)c(-c3ccc(OC(F)(F)F)nc3)c2n1` [Example 148-A], the IC50 on MAT2A homodimer was < 100 nM; in experiment [1], < 100 nM; with HCT116 MTAP−/−, 100 to 10000 nM; with HCT116 MTAP+/+, 100 to 10000 nM.

Turning to `Cn1cc2cc(-n3cc4ccc(OCC(F)F)nc4c(-c4ccc(OC(F)(F)F)nc4)c3=O)ccc2n1` [Example 125-A], the IC50 at MAT2A homodimer was < 100 nM; in experiment [1], < 100 nM; in the experiment on HCT116 MTAP−/−, < 100 nM; in the experiment with HCT116 MTAP+/+, 100 to 10000 nM.

In the case of `Cn1cnc2ccc(-n3cc4ccc(OCC(F)(F)F)nc4c(-c4ccc(C(F)(F)F)nc4)c3=O)cc21` [Example 128-A], the IC50 on MAT2A homodimer is < 100 nM; in experiment [1], < 100 nM; with HCT116 MTAP−/−, < 100 nM; in the experiment on HCT116 MTAP+/+, 100 to 10000 nM.

Regarding `Cc1nc2ccc(-n3cc4cnc(NCC(F)(F)F)nc4c(-c4ccc(Cl)cc4)c3=O)cc2n1C` [Example 124, 8-(4-chlorophenyl)-6-(1,2-dimethyl-1H-benzo[d]imidazol-6-yl)-2-((2,2,2-trifluoroethyl)amino)pyrido[4,3-d]pyrimidin-7(6H)-one], the IC50 on MAT2A homodimer was < 100 nM; in experiment [1] it was < 100 nM; with HCT116 MTAP−/− it was < 100 nM; in the experiment on HCT116 MTAP+/+, > 10000 nM.

Source of the values: patent publication US11524960B2, “Heterobicyclic inhibitors of MAT2A and methods of use for treating cancer” (AGIOS PHARMACEUTICALS, INC., priority 2018, dated 2022).
